Assay results as given in patent US8044035B2, “Pharmaceutical compositions of pyrimidine-2,4,6-triones” (priority 2004, dated 2011).

Experiment: Pharmacokinetics after intravenous administration to sheep
Assay type: in vivo
Conditions: intravenous 5 mg/kg
Procedure: The Compound I/HP-β-CD intravenous solution was obtained by dissolving Compound I (10 mg/ml) in a solution containing HP-β-CD (200 mM), L-lysine (20 mM) and water for injection. The osmolality (about 325 mOsmol/kg) and the pH (about 8.2) values of this solution are compatible with an intravenous injection. The solution was sterilized by passing through a sterile 0.20 μm cellulose acetate filter under aseptic conditions.
Six healthy sheep (2 males and 4 females) ranging from 45 to 82 kg of body weight were used as experimental animals. During the test, the animals were fed and watered ad libitum. […]
For the intravenous administration study, the pharmacokinetic parameters were determined for each animal using a linear two-compartment model with first-order distribution and elimination (Boroujerdi, M., Pharmacokinetics, Principles and Applications. McGrow-Hill Companies, USA, 2002). The areas under the curve values (AUCs0-168) were calculated by linear trapezoidal rule during the sampling period. The AUC extrapolated until infinite values (AUCs0-∞) the total body clearance values (Clt), the biologic half-life (T1/2β) and the overall volume of distribution (Vdt) were calculated using conventional equations associated with compartmental analysis (Boroujerdi, M., Pharmacokinetics, Principles and Applications. McGrow-Hill Companies, USA, 2002).

SMILES: O=C1NC(=O)C(c2ccc(-c3ccccc3)cc2)(N2CCN(c3ccc([N+](=O)[O-])cc3)CC2)C(=O)N1 [Compound I, 5-Biphenyl-4-yl-5-[4-(4-nitro-phenyl)-piperazin-1-yl]pyrimidine-2,4,6-trione]
- Distribution phase: about 30 minutes
